Data taken from patent US8674096B2, “Substituted imidazo[1,5-a]quinoxalin-4-ones as phosphodiesterase 9 inhibitors” (priority 2009, dated 2014).

melting point | SMILES
228 to 231 °C | Cc1cc2c(cc1C(=O)N1Cc3ccc(F)cc3C1)[nH]c(=O)c1cnc(C3CCCC3)n12
206 to 208 °C | Cc1cc2c(cc1C(=O)N1Cc3cccc(C)c3C1)[nH]c(=O)c1cnc(C3CCOCC3)n12.Cl
198 to 200 °C | Cc1cc2c(cc1C(=O)N1Cc3cccc(Cl)c3C1)[nH]c(=O)c1cnc(C3CCOCC3)n12.Cl
310 to 312 °C | Cc1cc2c(cc1C(=O)N1CCc3c(Cl)cccc3C1)[nH]c(=O)c1nnc(-c3sccc3C)n12
286 °C (dec.) | CN1CCN(C(=O)c2ccc3c(c2)[nH]c(=O)c2nnc(-c4ccc(O)cc4)n23)CC1c1ccccc1 (stereo not shown)
288 to 290 °C | Cc1cc2c(cc1C(=O)N1CCc3cc(Cl)ccc31)[nH]c(=O)c1nnc(C(=O)C3CC3)n12.Cl
186 to 188 °C | CCCc1nnc2c(=O)[nH]c3cc(C(=O)N4CCN(c5ccccc5Cl)CC4)c(C)cc3n12
212 to 213 °C | Cc1cc2c(cc1C(=O)N1CCc3cccc(C(=O)O)c3C1)[nH]c(=O)c1cnc(C3CCOCC3)n12.Cl
225 °C (dec.) | Cc1cc2c(cc1C(=O)N1Cc3cccc(N4CCOCC4)c3C1)[nH]c(=O)c1cnc(C3CCOCC3)n12.Cl
188 to 190 °C (dec.) | Cc1cc2c(cc1C(=O)N1CCc3c(Cl)cc(Cl)cc3C1)[nH]c(=O)c1cnc(C3CCOCC3)n12.Cl
192 to 194 °C (dec.) | Cc1cc2c(cc1C(=O)N1CCc3cnn(C)c3C1)[nH]c(=O)c1cnc(C3CCOCC3)n12
219 to 220 °C (dec.) | Cc1cc2c(cc1C(=O)N1CCc3cc(Br)ccc31)[nH]c(=O)c1cnc(C3CCOCC3)n12.Cl
275 to 276 °C | O=C(c1ccc2c(c1)[nH]c(=O)c1nnc(C3CCOCC3)n12)N1CCOC(c2ccccc2)C1 (stereo not shown)
206 to 208 °C | Cc1cc2c(cc1C(=O)N1CCc3cc(Cl)ccc31)[nH]c(=O)c1cnc(C3CCCOC3)n12.Cl (stereo not shown)
283 °C (dec.) | Cc1cc2c(cc1C(=O)N1Cc3cccc(C)c3C1)[nH]c(=O)c1cnc(C3CCCOC3)n12.Cl (stereo not shown)
204 to 206 °C | Cc1ccc2c(c1)CCN2C(=O)c1cc2[nH]c(=O)c3cnc(C4CCCOC4)n3c2cc1C.Cl (stereo not shown)
186 to 188 °C | Cc1cc2c(cc1C(=O)N1CCc3cc(F)ccc31)[nH]c(=O)c1cnc(C3CCOC3)n12.Cl (stereo not shown)
267 °C (dec.) | Cc1cc2c(cc1C(=O)N1CCc3c(Cl)cccc3C1)[nH]c(=O)c1cnc(C3CCOCC3)n12
218 to 220 °C | Cc1cc2c(cc1C(=O)N1CCc3cc(Cl)ccc31)[nH]c(=O)c1nnc(C3CCCC3)n12.Cl
219 to 221 °C | Cc1cc2c(cc1C(=O)N1CCc3onc(-c4ccc(Cl)cc4)c3C1)[nH]c(=O)c1nnc(C3CCOC3)n12.Cl (stereo not shown)
207 to 209 °C | Cc1cc2c(cc1C(=O)N1CCc3cccnc31)[nH]c(=O)c1nnc(C3CCCC3)n12
203 to 205 °C | Cc1cc2c(cc1C(=O)N1Cc3cccc(F)c3C1)[nH]c(=O)c1cnc(C3CCOC3)n12.Cl (stereo not shown)
287 °C (dec.) | Cc1cc2c(cc1C(=O)N1Cc3ccccc3C1)[nH]c(=O)c1nnc(C3CCOC(C)(C)C3)n12 (stereo not shown)
208 to 209 °C | Cc1cc2c(cc1C(=O)N1CCc3cc(C4CC4)cnc31)[nH]c(=O)c1nnc(C3CCCC3)n12
335 to 336 °C | Cc1cc2c(cc1C(=O)N1CCc3cc(Cl)ccc31)[nH]c(=O)c1nnc(C3CCOCC3)n12
316 to 319 °C | Cc1cc2c(cc1C(=O)N1CCc3cc(F)c(Cl)cc31)[nH]c(=O)c1nnc(C3CCOCC3)n12.Cl

melting point | SMILES
370 °C (dec.) | Cc1cc2c(cc1C(=O)N1CCc3cccnc31)[nH]c(=O)c1nnc(C3CCOCC3)n12
318 to 321 °C (dec.) | Cl.O=C(c1cc2[nH]c(=O)c3cnc(C4CCOCC4)n3c2cc1C1CC1)N1CCc2cc(F)ccc21
236 °C (dec.) | Cc1cc2c(cc1C(=O)N1Cc3ccccc3C1)[nH]c(=O)c1nnc(C3CCC3)n12.Cl
321 to 324 °C (dec.) | COc1cc2c(cc1C(=O)N1CCc3cc(F)ccc31)[nH]c(=O)c1cnc(C3CCOCC3)n12.Cl
199 to 201 °C (dec.) | COc1cc2c(cc1C(=O)N1Cc3ccccc3C1)[nH]c(=O)c1cnc(C3CCOCC3)n12.Cl
223 to 225 °C | Cc1cc2c(cc1C(=O)N1Cc3c(F)ccc(F)c3C1)[nH]c(=O)c1cnc(C3CCCOC3)n12 (stereo not shown)
322 °C (dec.) | Cc1cc2c(cc1C(=O)N1Cc3ccccc3C1)[nH]c(=O)c1nnc(C3CCC(F)(F)CC3)n12
310 °C (dec.) | Cc1cc2c(cc1C(=O)N1CCc3cccnc31)[nH]c(=O)c1nnc(C3CCC(F)(F)CC3)n12.Cl
335 °C (dec.) | Cc1cc2c(cc1C(=O)N1Cc3ccccc3C1)[nH]c(=O)c1c(C)nc(C3CCOCC3)n12.Cl
198 °C (dec.) | Cc1cc2c(cc1C(=O)N1CCc3cc(Cl)ccc31)[nH]c(=O)c1c(C)nc(C3CCOCC3)n12.Cl
297 °C (dec.) | COc1cc2c(cc1C(=O)N1CCc3cc(C4CC4)cnc31)[nH]c(=O)c1cnc(C3CCOCC3)n12
310 °C (dec.) | O=C(c1cc2[nH]c(=O)c3cnc(C4CCOCC4)n3c2cc1C1CC1)N1CCc2cc(C3CC3)cnc21
287 to 288 °C | Cc1cc2c(cc1C(=O)N1CCc3cc(F)c(F)cc31)[nH]c(=O)c1cnc(C3CCOCC3)n12.Cl
205 to 207 °C | Cl.O=C(c1cc2[nH]c(=O)c3cnc(C4CCOCC4)n3c2cc1C1CC1)N1Cc2cccc(F)c2C1
195 to 197 °C | COc1cc2c(cc1C(=O)N1Cc3cccc(F)c3C1)[nH]c(=O)c1cnc(C3CCOCC3)n12.Cl
314 °C (dec.) | Cc1cc2c(cc1C(=O)N1CCc3cccnc31)[nH]c(=O)c1nnc(C3CCCOC3)n12 (stereo not shown)
212 to 215 °C | Cc1cc2c(cc1C(=O)N1CCc3ccccc3CC1)[nH]c(=O)c1nnc(C3CCOCC3)n12.Cl
318 °C (dec.) | O=C(c1ccc2c(c1)[nH]c(=O)c1nnc(C3CCOCC3)n12)N1CCc2c(Cl)cccc2C1
216 to 219 °C | Cc1cc2c(cc1C(=O)N1CCc3sccc3C1)[nH]c(=O)c1nnc(C3CCOCC3)n12.Cl
223 to 225 °C | Cc1cc2c(cc1C(=O)N1CCc3c(cc(-c4ccccc4)n3C)C1)[nH]c(=O)c1nnc(C3CCOCC3)n12
219 to 221 °C (dec.) | CN(C)CCOc1cc2c(cc1C(=O)N1CCc3cc(Cl)ccc31)[nH]c(=O)c1cnc(C3CCOCC3)n12
293 to 295 °C | CCCc1nnc2c(=O)[nH]c3cc(C(=O)N4CCc5c(Cl)cccc5C4)ccc3n12
297 °C (dec.) | Cc1cc2c(cc1C(=O)N1CCc3cc(Cl)cnc31)[nH]c(=O)c1cnc(C3CCOCC3)n12.Cl
343 °C (dec.) | Cc1cc2c(cc1C(=O)N1CCc3cc(Br)cnc31)[nH]c(=O)c1nnc(C3CCC(F)(F)CC3)n12
218 to 220 °C (dec.) | Cc1cc2c(cc1C(=O)N1CCc3cc(Br)cnc31)[nH]c(=O)c1nnc(C3CCCOC3)n12 (stereo not shown)
210 to 211 °C (dec.) | Cc1cc2c(cc1C(=O)N1CCc3cccnc31)[nH]c(=O)c1nnc(C3CCOC3)n12.Cl (stereo not shown)

melting point | SMILES
293 °C (dec.) | CCCc1nnc2c(=O)[nH]c3cc(C(=O)N4Cc5ccc(F)cc5C4)ccc3n12
279 °C (dec.) | Cc1cc2c(cc1C(=O)N1CCc3cc(Cl)ccc31)[nH]c(=O)c1ncc(C3CCCC3)n12.Cl
215 to 218 °C | Cc1cc2c(cc1C(=O)N1CCc3cc(Cl)ccc31)[nH]c(=O)c1nnc(CC3CCSCC3)n12.Cl
200 to 202 °C | Cc1cc2c(cc1C(=O)N1CCc3cc(F)ccc31)[nH]c(=O)c1cnc([C@H]3CC[C@@H](O)CC3)n12.Cl
284 °C (dec.) | COc1cc2c(cc1C(=O)N1CCc3cc(Cl)ccc31)[nH]c(=O)c1nnc(C3CCOCC3)n12.Cl
200 to 203 °C | Cc1cc2c(cc1C(=O)N1Cc3ccc(F)cc3C1)[nH]c(=O)c1cnc(C3CCOCC3)n12.Cl
172 to 174 °C | COCc1cc2c(cc1C(=O)N1Cc3c(F)ccc(F)c3C1)[nH]c(=O)c1cnc(C3CCOCC3)n12.Cl
234 to 235 °C | Cc1cc2c(cc1C(=O)N1CCc3cc(F)ccc31)[nH]c(=O)c1nnc(C3CC(F)(F)C3)n12
243 to 245 °C | Cc1cc2c(cc1C(=O)N1CCc3cc(Cl)ccc31)[nH]c(=O)c1nnc(C3CC(F)(F)C3)n12
316 °C (dec.) | Cc1cc2c(cc1C(=O)N1Cc3ccccc3C1)[nH]c(=O)c1nnc(-c3ccccc3)n12
248 to 249 °C | Cc1cc2c(cc1C(=O)N1CCc3cc(Cl)ccc31)[nH]c(=O)c1nnc(-c3ccccc3)n12
235 to 237 °C | Cc1cc2c(cc1C(=O)N1CCc3cc(Cl)ccc31)[nH]c(=O)c1nnc([C@H]3CC[C@H](O)CC3)n12.Cl
271 °C (dec.) | COc1cc2c(cn1)N(C(=O)c1cc3[nH]c(=O)c4nnc(C5CCOCC5)n4c3cc1C)CC2
264 to 266 °C (dec.) | Cc1ccc2c(c1)CCN2C(=O)c1cc2[nH]c(=O)c3c(C)nc(C4CCOCC4)n3c2cc1C.Cl
290 °C (dec.) | Cc1c(C(=O)N2CCc3cc(Cl)ccc32)ccc2c1[nH]c(=O)c1cnc(C3CCOCC3)n12
170 to 172 °C | Cc1cc2c(cc1C(=O)N1CCCc3ccccc3C1)[nH]c(=O)c1cnc(C3CCOCC3)n12.Cl
299 to 303 °C | COc1cc2c(cc1C(=O)N1Cc3ccccc3C1)[nH]c(=O)c1cnc(C3CCCCC3)n12.Cl
198 to 201 °C | COCc1cc2c(cc1C(=O)N1CCc3cc(Cl)ccc31)[nH]c(=O)c1nnc(C3(C)CCOCC3)n12.Cl
195 to 198 °C | COCc1cc2c(cc1C(=O)N1CCc3cc(F)c(F)cc31)[nH]c(=O)c1nnc(C3(C)CCOCC3)n12.Cl
282 to 284 °C | Cc1ccc2c(c1)CCN2C(=O)c1cc2[nH]c(=O)c3cnc(C4CCOCC4)n3c2cc1C.Cl
276 to 277 °C | Cc1cc2c(cc1C(=O)N1CCc3ccc(C(F)(F)F)cc31)[nH]c(=O)c1cnc(C3CCOCC3)n12.Cl
318 to 321 °C | Cc1cc2c(cc1C(=O)N1Cc3ccccc3C1)[nH]c(=O)c1nnc([C@H]3CC[C@H](C)CC3)n12
262 to 263 °C | Cc1cc2c(cc1C(=O)N1Cc3cccc(C)c3C1)[nH]c(=O)c1nnc(C3CCOCC3)n12
297 to 299 °C | Cc1cc2c(cc1C(=O)N1CCc3c(Cl)cccc3C1)[nH]c(=O)c1cnc(C3CCCC3)n12
